DBAASP
≈ marks a conversion by molar mass, not a printed value.

How the values were obtained:
Assay in all cases: ≥ marks a high value that may be exact or a test limit, other limits are often not marked, values filed in µg/mL are converted to µM
Streptococcus mutans = test system: Streptococcus mutans
[1] = test system: Escherichia coli ATCC 11775
[2] = test system: Staphylococcus aureus ATCC 12600
[3] = test system: Escherichia coli ATCC 25922
[4] = test system: Klebsiella pneumoniae ATCC 700603
[5] = test system: Pseudomonas aeruginosa ATCC 27853
[6] = test system: Staphylococcus aureus ATCC 29213
[7] = test system: Staphylococcus aureus ATCC 33591
[8] = test system: Staphylococcus aureus ATCC 700699
Escherichia coli K-12 = test system: Escherichia coli K-12
[9] = test system: Staphylococcus aureus ATCC 25923
[10] = test system: Staphylococcus aureus ATCC 43300
Staphylococcus aureus = test system: Staphylococcus aureus
[11] = test system: Escherichia coli ATCC 8739
Escherichia coli BW25113 = test system: Escherichia coli BW25113
[12] = test system: Enterococcus faecalis ATCC 29212
[13] = test system: Salmonella enterica subsp. enterica serovar Pullorum C79-13
[14] = test system: Salmonella enterica subsp. enterica serovar Typhimurium C77-31
[15] = test system: Staphylococcus epidermidis ATCC 12228

Compound: CC(C)C[C@H](NC(=O)[C@H](CCCN=C(N)N)NC(=O)[C@H](CCCCN)NC(=O)[C@H](C)N)C(=O)N[C@@H](CC(C)C)C(=O)N[C@@H](CCCCN)C(=O)N[C@H](C(=O)N[C@@H](CC(C)C)C(=O)N[C@@H](CCCCN)C(=O)N[C@@H](CCCN=C(N)N)C(=O)N[C@@H](Cc1ccccc1)C(N)=O)C(C)C [AKRLLKVLKRF]
- MIC (Streptococcus mutans): 16.5 µM (≈ 22.6 µg/mL)

Compound: CC(C)C[C@H](NC(=O)[C@H](C)NC(=O)[C@H](CC(C)C)NC(=O)[C@@H]1CCCN1C(=O)[C@H](Cc1ccccc1)NC(=O)[C@@H](N)Cc1ccccc1)C(=O)N[C@@H](CC(C)C)C(=O)N[C@H]1CSSC[C@@H](C(=O)O)NC(=O)[C@H](CCCCN)NC(=O)[C@H](CCCCN)NC(=O)[C@H](Cc2ccccc2)NC(=O)[C@H](C(C)C)NC(=O)[C@H](CCCCN)NC1=O [FFPLALLCKVFKKC]
- MIC [1]: 25 µM (≈ 41.4 µg/mL)
- MIC [2]: ≥ 100 µM

Compound: CC[C@H](C)[C@H](NC(=O)[C@H](CC(=O)O)NC(=O)[C@H](CCCCN)NC(=O)[C@H](C)NC(=O)[C@H](C)NC(=O)CNC(=O)[C@H](CCCCN)NC(=O)[C@H](CC(C)C)NC(=O)[C@@H](NC(=O)[C@H](CC(=O)O)NC(=O)[C@@H](NC(=O)[C@H](C)NC(=O)CN)C(C)C)[C@@H](C)CC)C(=O)N[C@@H](C)C(=O)NCC(=O)N[C@@H](Cc1cnc[nH]1)C(=O)N[C@@H](CC(C)C)C(=O)N[C@@H](C)C(=O)N[C@@H](CO)C(=O)N[C@@H](CCCCN)C(=O)N[C@H](C(=O)N[C@@H](CCSC)C(=O)N[C@@H](CC(N)=O)C(=O)N[C@@H](CCCCN)C(=O)N[C@@H](CC(C)C)C(N)=O)C(C)C [GAVDILKGAAKDIAGHLASKVMNKL]
- MIC [3]: > 100 µM
- MIC [4]: > 100 µM
- MIC [5]: > 100 µM
- MIC [6]: > 100 µM
- MIC [7]: ≥ 100 µM
- MIC [8]: ≥ 100 µM

Compound: CC[C@H](C)[C@H](NC(=O)[C@H](CC(=O)O)NC(=O)[C@H](CCCCN)NC(=O)[C@H](CC(C)C)NC(=O)[C@H](C)NC(=O)CNC(=O)[C@H](CCCCN)NC(=O)[C@H](CC(C)C)NC(=O)[C@@H](NC(=O)[C@H](CC(=O)O)NC(=O)[C@@H](NC(=O)[C@@H](NC(=O)CN)C(C)C)C(C)C)[C@@H](C)CC)C(=O)N[C@@H](C)C(=O)NCC(=O)N[C@@H](Cc1cnc[nH]1)C(=O)N[C@@H](CC(C)C)C(=O)N[C@@H](C)C(=O)N[C@@H](CO)C(=O)N[C@@H](CCCCN)C(=O)N[C@H](C(=O)N[C@@H](CCSC)C(=O)N[C@@H](CC(N)=O)C(=O)N[C@@H](CCCCN)C(=O)N[C@@H](CC(C)C)C(N)=O)C(C)C [GVVDILKGALKDIAGHLASKVMNKL]
- MIC [3]: 12.5 µM (≈ 32.4 µg/mL)
- MIC [4]: 50 µM (≈ 130 µg/mL)
- MIC [5]: 50 µM (≈ 130 µg/mL)
- MIC [6]: 100 µM (≈ 259 µg/mL)
- MIC [7]: 25 µM (≈ 64.8 µg/mL)
- MIC [8]: ≥ 50 µM

Compound: CC[C@H](C)[C@H](N)C(=O)NCC(=O)N[C@@H](CCCCN)C(=O)N[C@@H](CCC(=O)O)C(=O)N[C@@H](Cc1ccccc1)C(=O)N[C@@H](CCCCN)C(=O)N[C@@H](CCCNC(=N)N)C(=O)N[C@H](C(=O)N[C@H](C(=O)N[C@@H](CCC(N)=O)C(=O)N[C@@H](CCCNC(=N)N)C(=O)N[C@H](C(=O)N[C@@H](CCCCN)C(=O)N[C@@H](CC(=O)O)C(=O)N[C@@H](Cc1ccccc1)C(=O)N[C@@H](CC(C)C)C(=O)N[C@@H](CCCNC(=N)N)C(=O)N[C@@H](CC(N)=O)C(=O)N[C@@H](CC(C)C)C(=O)N[C@H](C(=O)N1CCC[C@H]1C(=O)N[C@@H](CCCNC(=N)N)C(=O)N[C@H](C(=O)N[C@@H](CCC(=O)O)C(=O)N[C@H](C=O)CO)[C@@H](C)O)C(C)C)[C@@H](C)CC)C(C)C)[C@@H](C)CC [IGKEFKRIVQRIKDFLRNLVPRTES]
- MIC (Escherichia coli K-12): ≥ 80 µM
- MIC [9]: 168 µM (≈ 509 µg/mL)
- MIC [10]: 168 µM (≈ 509 µg/mL)
- MIC [8]: ≥ 336 µM
- MIC (Staphylococcus aureus): 168 µM (≈ 509 µg/mL)

Compound: CC[C@H](C)[C@H](NC(=O)[C@H](CCCCN)NC(=O)[C@@H](N)CCCCN)C(=O)N[C@@H](CC(N)=O)C(=O)N[C@@H](CC(N)=O)C(=O)N[C@H](C(=O)N[C@H](C(=O)N[C@@H](CC(C)C)C(=O)N[C@@H](CO)C(=O)NCC(=O)N[C@@H](CC(C)C)C(=O)N[C@@H](CC(=O)O)C(=O)N[C@@H](CO)C(=O)N[C@H](C(=O)N[C@@H](C)C(=O)N[C@@H](CO)C(=O)N[C@@H](Cc1ccccc1)C(=O)N[C@@H](CO)C(=O)O)C(C)C)[C@@H](C)CC)[C@@H](C)O [KKINNTILSGLDSVASFS]
- MIC [11]: ≥ 135 µM
- MIC [9]: > 135 µM

Compound: CC[C@H](C)[C@H](NC(=O)[C@@H]1CCCN1C(=O)[C@H](CCCN=C(N)N)NC(=O)[C@H](CCCN=C(N)N)NC(=O)[C@H](Cc1ccccc1)NC(=O)[C@@H](N)CCCN=C(N)N)C(=O)N[C@@H](CCCN=C(N)N)C(=O)N[C@@H](CCCN=C(N)N)C(=O)N[C@@H](CCCN=C(N)N)C(=O)N1CCC[C@H]1C(=O)N[C@H](C(=O)N[C@@H](CCCN=C(N)N)C(=O)N1CCC[C@H]1C(=O)N1CCC[C@H]1C(=O)N[C@@H](Cc1ccccc1)C(=O)N[C@@H](Cc1c[nH]c2ccccc12)C(=O)N[C@@H](CCCN=C(N)N)C(=O)O)[C@@H](C)CC [RFRRPIRRRPIRPPFWR]
- MIC (Escherichia coli BW25113): 8 µM (≈ 18.9 µg/mL)

Compound: NCCCC[C@H](NC(=O)[C@H](Cc1c[nH]c2ccccc12)NC(=O)[C@H](Cc1c[nH]c2ccccc12)NC(=O)[C@H](CCCCN)NC(=O)[C@@H](N)CCCN=C(N)N)C(N)=O [RKWWK]
- MIC [3]: > 77.8 µM
- MIC [2]: ≥ 77.8 µM

Compound: CC[C@H](C)[C@H](NC(=O)[C@@H]1CCCN1C(=O)[C@H](CCCN=C(N)N)NC(=O)[C@H](CCCN=C(N)N)NC(=O)[C@H](Cc1c[nH]c2ccccc12)NC(=O)[C@@H](N)CCCN=C(N)N)C(=O)N[C@@H](CCCN=C(N)N)C(=O)N[C@@H](CCCN=C(N)N)C(=O)N[C@@H](CCCN=C(N)N)C(=O)N1CCC[C@H]1C(=O)N[C@H](C(=O)N[C@@H](CCCN=C(N)N)C(=O)N1CCC[C@H]1C(=O)N1CCC[C@H]1C(=O)N[C@@H](Cc1ccccc1)C(=O)N[C@@H](Cc1ccc(O)cc1)C(=O)N1CCC[C@H]1C(=O)O)[C@@H](C)CC [RWRRPIRRRPIRPPFYP]
- MIC (Escherichia coli BW25113): 8 µM (≈ 18.6 µg/mL)

Compound: CC[C@H](C)[C@H](NC(=O)[C@@H]1CCCN1C(=O)[C@H](Cc1c[nH]c2ccccc12)NC(=O)[C@H](CCCN=C(N)N)NC(=O)[C@H](Cc1c[nH]c2ccccc12)NC(=O)[C@@H](N)CCCN=C(N)N)C(=O)N[C@@H](CCCN=C(N)N)C(=O)N[C@@H](CCCN=C(N)N)C(=O)N[C@@H](CCCN=C(N)N)C(=O)N1CCC[C@H]1C(=O)N[C@H](C(=O)N[C@@H](CCCN=C(N)N)C(=O)N1CCC[C@H]1C(=O)N1CCC[C@H]1C(=O)N[C@@H](Cc1c[nH]c2ccccc12)C(=O)N[C@@H](Cc1ccc(O)cc1)C(=O)N[C@@H](CCCN=C(N)N)C(=O)O)[C@@H](C)CC [RWRWPIRRRPIRPPWYR]
- MIC (Escherichia coli BW25113): 4 µM (≈ 9.79 µg/mL)

Compound: NCCCC[C@H](NC(=O)CNC(=O)[C@H](CC(N)=O)NC(=O)[C@H](CCC(=O)O)NC(=O)[C@H](Cc1c[nH]c2ccccc12)NC(=O)[C@H](CCCCN)NC(=O)[C@H](Cc1c[nH]c2ccccc12)NC(=O)[C@H](CCCCN)NC(=O)[C@@H](N)Cc1c[nH]c2ccccc12)C(=O)N[C@@H](Cc1c[nH]c2ccccc12)C(=O)N[C@@H](CCCCN)C(=O)N[C@@H](Cc1c[nH]c2ccccc12)C(=O)N[C@@H](CCCCN)C(=O)N[C@@H](Cc1c[nH]c2ccccc12)C(=O)O [WKWKWENGKWKWKW]
- MIC [12]: 64 µM (≈ 133 µg/mL)
- MIC [3]: 2 µM (≈ 4.15 µg/mL)
- MIC [13]: 8 µM (≈ 16.6 µg/mL)
- MIC [14]: ≥ 32 µM
- MIC [6]: 32 µM (≈ 66.4 µg/mL)
- MIC [15]: 32 µM (≈ 66.4 µg/mL)

Compound: CC[C@H](C)[C@H](NC(=O)[C@H](Cc1ccccc1)NC(=O)[C@H](CS)NC(=O)[C@@H](NC(=O)[C@H](CO)NC(=O)[C@@H](N)Cc1ccc(O)cc1)[C@@H](C)O)C(=O)N[C@@H](CCSC)C(=O)NCC(=O)NCC(=O)NCC(=O)N[C@@H](Cc1c[nH]c2ccccc12)C(=O)N[C@@H](CCCCN)C(=O)N[C@@H](Cc1c[nH]c2ccccc12)C(=O)N[C@@H](CCCCN)C(=O)N[C@@H](Cc1c[nH]c2ccccc12)C(=O)N[C@@H](CCC(=O)O)C(=O)N[C@@H](CC(N)=O)C(=O)NCC(=O)N[C@@H](CCCCN)C(=O)N[C@@H](Cc1c[nH]c2ccccc12)C(=O)N[C@@H](CCCCN)C(=O)N[C@@H](Cc1c[nH]c2ccccc12)C(=O)N[C@@H](CCCCN)C(=O)N[C@@H](Cc1c[nH]c2ccccc12)C(=O)O [YSTCFIMGGGWKWKWENGKWKWKW]
- MIC [12]: > 128 µM
- MIC [3]: 32 µM (≈ 99 µg/mL)
- MIC [13]: ≥ 128 µM
- MIC [14]: ≥ 128 µM
- MIC [6]: > 128 µM
- MIC [15]: > 128 µM
